{
  "source": "patent US20250064062A1",
  "about": "“METHOD FOR INCREASING THE EFFICACY OF A HERBICIDE” (BASF SE, priority 2021, published 2025)",
  "assay_type_in_all_cases": "in vivo",
  "settings_in_all_cases": "Dicamba 560 g ae/ha alone; Induce 0.25% v/v",
  "key": {"[1]": {"system": "velvetleaf (Abutilon theophrasti, ABUTH)", "assay": "Greenhouse trial: dicamba (Engenia) with copolymer CP1, postemergence weed control"}, "[2]": {"system": "common lambsquarters (Chenopodium album; OCHEAL)", "assay": "Greenhouse trial: dicamba (Engenia) with copolymer CP1, postemergence weed control"}, "[3]": {"system": "waterhemp (Amaranthus tuberculatus, AMATA)", "assay": "Greenhouse trial: dicamba (Engenia) with copolymer CP1, postemergence weed control"}, "AMATA, ABUTH, CHEAL": {"system": "AMATA, ABUTH, CHEAL", "assay": "Greenhouse trial: dicamba with copolymer CP1, mean over the three weed species"}},
  "data": [
    {"smiles": "COc1c(Cl)ccc(Cl)c1C(=O)O", "note": "[Dicamba, dicamba]", "values": [
      {"measurement": "% Control (21 Days after Treatment) ABUTH", "setting": "[1]", "value": 53, "unit": "%"},
      {"measurement": "% Control (21 Days after Treatment) CHEAL", "setting": "[2]", "value": 86, "unit": "%"},
      {"measurement": "% Control (21 Days after Treatment) AMATA", "setting": "[3]", "value": 83, "unit": "%"},
      {"measurement": "% Control (21 Days after Treatment) Mean", "setting": "AMATA, ABUTH, CHEAL", "value": 74, "unit": "%"}
    ]}
  ]
}
